Test results as given in patent publication US12331041B2, “GLP-1 receptor agonists and uses thereof” (Pfizer Inc., priority 2018, dated 2025).
Counter-ions that a name gives are not always drawn.

Key:
[1] = target: T1, human GLP-1R (Homo sapiens, UniProt P43220, G168S); test: CHO GLP-1R Clone H6 - Assay 1 (HTRF cAMP agonist assay); type: cell-based; settings: for EC50: CHO Clone H6, high GLP-1R density, cAMP, geometric mean; for Emax / Assay 1 Emax (%): CHO Clone H6, relative to saturating full agonist GLP-1 7-36 (1 μM), arithmetic mean
T1 construct: expressed in transfected cells
Experimental: GLP-1R-mediated agonist activity was determined with a cell-based functional assay utilizing an HTRF (Homogeneous Time-Resolved Fluorescence) cAMP detection kit (cAMP HI Range Assay Kit; CisBio cat #62AM6PEJ) that measures cAMP levels in the cell. The method is a competitive immunoassay between native cAMP produced by the cells and exogenous cAMP labeled with the dye d2, The tracer binding is visualized by a mAb anti-cAMP labeled with Cryptate. The specific signal (i.e. energy transfer) is inversely proportional to the concentration of cAMP in either standard or experimental sample.
The human GLP-1R coding sequence (NCBI Reference Sequence NP_002053.3, including naturally-occurring variant Gly168Ser) was subcloned into pcDNA3 (Invitrogen) and a cell line stably expressing the receptor was isolated (designated Clone H6).
(§1) A 1 mL sample of the cell suspension in growth media was counted on a Becton Dickinson ViCell to determine cell viability and cell count per mL. The remaining cell suspension was then adjusted with growth media to deliver 2000 viable cells per well using a Matrix Combi Multidrop reagent dispenser, and the cells were dispensed into a white 384 well tissue culture treated assay plate (Corning 3570). The assay plate was then incubated for 48 hours at 37° C. in a humidified environment in 5% carbon dioxide.
Varying concentrations of each compound to be tested (in DMSO) were diluted in assay buffer (HBSS with Calcium/Magnesium (Lonza/BioWhittaker cat #10-527F)/0.1% BSA (Sigma Aldrich cat #A7409-1L)/20 mM HEPES (Lonza/BioWhittaker cat #17-737E) containing 100 μM 3-isobutyl-1-methylxanthin (IBMX; Sigma cat #15879). The final DMSO concentration is 1%.
After 48 hours, the growth media was removed from the assay plate wells, and the cells were treated with 20 μL of the serially diluted compound in assay buffer for 30 minutes at 37° C. in a humidified environment in 5% carbon dioxide. Following the 30 minute incubation, 10 μL of labeled d2 cAMP and 10 μL of anti-cAMP antibody (both diluted 1:20 in cell lysis buffer; as described in the manufacturer's assay protocol) were added to each well of the assay plate. The plates were then incubated at room temperature and after 60 minutes, changes in the HTRF signal were read with an Envision 2104 multi-label plate reader using excitation of 330 nm and emissions of 615 and 665 nm. Raw data were converted to nM cAMP by interpolation from a cAMP standard curve (as described in the manufacturer's assay protocol) and the percent effect was determined relative to a saturating concentration of the full agonist GLP-17-36 (1 μM) included on each plate. EC50 determinations were made from agonist dose-response curves analyzed with a curve fitting program using a 4-parameter logistic dose response equation.

[2] = target: T2, human GLP-1R (Homo sapiens, UniProt P43220, L260F); test: CHO GLP-1R Clone C6 - Assay 2 (HTRF cAMP agonist assay); type: cell-based; settings: for EC50: CHO clone C6, low GLP-1R density, cAMP, geometric mean; for Emax: CHO clone C6, relative to saturating full agonist GLP-1 (1 μM), arithmetic mean
T2 construct: expressed in transfected cells; host or cells: CHO Flp-In T-REx, clonal line C6 (pcDNA5-FRT-TO)
Experimental: GLP-1R-mediated agonist activity was determined with a cell-based functional assay utilizing an HTRF (Homogeneous Time-Resolved Fluorescence) cAMP detection kit (cAMP HI Range Assay Kit; Cis Bio cat #62AM6PEJ) that measures cAMP levels in the cell. The method is a competitive immunoassay between native cAMP produced by the cells and exogenous cAMP labeled with the dye d2. The tracer binding is visualized by a mAb anti-cAMP labeled with Cryptate. The specific signal (i.e. energy transfer) is inversely proportional to the concentration of cAMP in either a standard or an experimental sample.
The human GLP-1R coding sequence (NCBI Reference Sequence NP_002053.3, including naturally-occurring variant Leu260Phe) was subcloned into pcDNA5-FRT-TO and a clonal CHO cell line stably expressing a low receptor density was isolated using the Flp-In™ T-Rex™ System, as described by the manufacturer (ThermoFisher).
as §1, with “deliver 1600” for “deliver 2000”, “48 h” for “48 hours”, “environment (95% O2,” for “environment in”, “5% CO2)” for “5% carbon dioxide.”
Varying concentrations of each compound to be tested (in DMSO) were diluted in assay buffer [HBSS with Calcium/Magnesium (Lonza/BioWhittaker cat #10-527F)/0.1% BSA (Sigma Aldrich cat #A7409-1L)/20 mM HEPES (Lonza/BioWhittaker cat #17-737E)] containing 100 μM 3-isobutyl-1-methylxanthin (IBMX; Sigma cat #15879). The final DMSO concentration in the compound/assay buffer mixture is 1%.
After 48 h, the growth media was removed from the assay plate wells, and the cells were treated with 20 μL of the serially diluted compound in assay buffer for 30 min at 37° C. in a humidified environment (95% O2, 5% CO2). Following the 30 min incubation, 10 μL of labeled d2 cAMP and 10 μL of anti-cAMP antibody (both diluted 1:20 in cell lysis buffer; as described in the manufacturer's assay protocol) were added to each well of the assay plate. The plates were then incubated at room temperature and after 60 minutes, changes in the HTRF signal were read with an Envision 2104 multi-label plate reader using excitation of 330 nm and emissions of 615 and 665 nm. Raw data were converted to nM cAMP by interpolation from a cAMP standard curve (as described in the manufacturer's assay protocol) and the percent effect was determined relative to a saturating concentration of the full agonist GLP-1 (1 μM) included on each plate. EC50 determinations were made from agonist dose response curves analyzed with a curve fitting program using a 4-parameter logistic dose response equation.

T1 sequence (P43220 24-463 G168S): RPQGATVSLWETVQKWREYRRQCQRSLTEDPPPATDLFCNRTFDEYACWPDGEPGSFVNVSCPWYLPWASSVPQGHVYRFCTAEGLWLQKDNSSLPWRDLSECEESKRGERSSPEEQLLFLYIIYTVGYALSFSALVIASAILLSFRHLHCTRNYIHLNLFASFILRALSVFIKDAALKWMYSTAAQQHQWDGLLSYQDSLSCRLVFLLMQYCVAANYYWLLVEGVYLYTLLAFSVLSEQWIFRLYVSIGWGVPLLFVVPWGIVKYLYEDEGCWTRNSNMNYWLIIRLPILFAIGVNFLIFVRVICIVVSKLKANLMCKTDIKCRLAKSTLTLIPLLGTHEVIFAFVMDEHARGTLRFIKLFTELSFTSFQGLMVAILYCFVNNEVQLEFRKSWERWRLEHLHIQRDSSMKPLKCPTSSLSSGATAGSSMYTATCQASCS
T2 sequence (P43220 24-463 L260F): as the sequence (P43220 24-463 G168S) above, with S145G, L237F counted along it

SMILES | EC50 [1] [µM] | Emax [1] [%] | Assay 1 Emax (%) [1] [%] | EC50 [2] [µM] | Emax [2] [%]
COCCn1c(C2CC23CCN(c2nc(OCc4ccc(Cl)cc4F)ncc2F)CC3)nc2cnc(C(=O)O)cc21 (single isomer, unassigned) [Example 32, 2-(6-{2-[(4-chloro-2-fluorobenzyl)oxy]-5-fluoropyrimidin-4-yl}-6-azaspiro[2.5]oct-1-yl)-1-(2-methoxyethyl)-1H-imidazo[4,5-c]pyridine-6-carboxylic acid, trifluoroacetate salt, single enantiomer; from C23] | > 20 | – | – | – | –
COCCn1c(C2CC23CCN(c2ccnc(OCc4ccc(Cl)cc4F)n2)CC3)nc2ccc(C(=O)O)cc21 (single isomer, unassigned; ent-1) [Example 46, Ammonium 2-(6-{2-[(4-chloro-2-fluorobenzyl)oxy]pyrimidin-4-yl}-6-azaspiro[2.5]oct-1-yl)-1-(2-methoxyethyl)-1H-benzimidazole-6-carboxylate, ENT-1] | > 9.7 | 100 | – | – | –
N#Cc1ccc(COc2ncccc2C2CCN(Cc3nc4ccc(C(=O)O)cc4n3C[C@@H]3CCO3)CC2)c(F)c1 [Example 5, 2-[(4-{2-[(4-cyano-2-fluorobenzyl)oxy]pyridin-3-yl}piperidin-1-yl)methyl]-1-[(2S)-oxetan-2-ylmethyl]-1H-benzimidazole-6-carboxylic acid] | – | – | – | 0.042 | 95
Cn1nncc1Cn1c(CN2CCC(c3cccnc3OCc3ccc(Cl)cc3F)CC2)nc2ccc(C(=O)O)cc21 [Example 10, 2-[(4-{2-[(4-chloro-2-fluorobenzyl)oxy]pyridin-3-yl}piperidin-1-yl)methyl]-1-[(1-methyl-1H-1,2,3-triazol-5-yl)methyl]-1H-benzimidazole-6-carboxylic acid, trifluoroacetate salt] | – | – | – | 0.22 | 100
N#Cc1ccc(COc2ncccc2C2CCN(Cc3nc4ccc(C(=O)O)nc4n3C[C@@H]3CCO3)CC2)c(F)c1 [Example 18, ammonium 2-[(4-{2-[(4-cyano-2-fluorobenzyl)oxy]pyridin-3-yl}piperidin-1-yl)methyl]-3-[(2S)-oxetan-2-ylmethyl]-3H-imidazo[4,5-b]pyridine-5-carboxylate] | – | – | – | 0.059 | 100
N#Cc1ccc(COc2nccnc2C2CCN(Cc3nc4ccc(C(=O)O)cc4n3C[C@@H]3CCO3)CC2)c(F)c1 [Example 28, ammonium 2-[(4-{3-[(4-cyano-2-fluorobenzyl)oxy]pyrazin-2-yl}piperidin-1-yl)methyl]-1-[(2S)-oxetan-2-ylmethyl]-1H-benzimidazole-6-carboxylate] | – | – | – | 0.15 | 98

More lines, in order of falling EC50 [1], values ahead:

EC50 [1] [µM] | Emax [1] [%] | Assay 1 Emax (%) [1] [%] | EC50 [2] [µM] | Emax [2] [%] | SMILES
3.4 | – | 89 | – | – | O=C(O)c1ccc2nc(C3CC34CCN(c3nc(OCc5ccc(Cl)cc5F)ncc3F)CC4)n(CCn3cncn3)c2c1 (single isomer, unassigned) [Example 42, 2-(6-{2-[(4-chloro-2-fluorobenzyl)oxy]-5-fluoropyrimidin-4-yl}-6-azaspiro[2.5]oct-1-yl)-1-[2-(1H-1,2,4-triazol-1-yl)ethyl]-1H-benzimidazole-6-carboxylic acid, trifluoroacetate salt, from C23]
2.6 | 56 | – | – | – | COCCn1c(C2CC23CCN(c2cccc(OCc4ccc(Cl)cc4F)n2)CC3)nc2ncc(C(=O)O)cc21 (single isomer, unassigned) [Example 48, 2-(6-{6-[(4-chloro-2-fluorobenzyl)oxy]pyridin-2-yl}-6-azaspiro[2.5]oct-1-yl)-1-(2-methoxyethyl)-1H-imidazo[4,5-b]pyridine-6-carboxylic acid, ENT-1]
1.9 | 92 | – | – | – | C[C@H]1CN(c2nccnc2OCc2ccc(Cl)cc2F)CCN1Cc1nc2ccc(C(=O)O)nc2n1C [Example 34, 2-{[(2S)-4-{3-[(4-Chloro-2-fluorobenzyl)oxy]pyrazin-2-yl}-2-methylpiperazin-1-yl]methyl}-3-methyl-3H-imidazo[4,5-b]pyridine-5-carboxylic acid, trifluoroacetate salt]
1.8 | 65 | – | – | – | Cn1c(CN2CCC(c3nccnc3OCc3ccc(Cl)cc3F)CC2)nc2cnc(C(=O)O)cc21 [Example 29, 2-[(4-{3-[(4-Chloro-2-fluorobenzyl)oxy]pyrazin-2-yl}piperidin-1-yl)methyl]-1-methyl-1H-imidazo[4,5-c]pyridine-6-carboxylic acid, trifluoroacetate salt]
0.7 | 79 | – | – | – | C[C@H]1CN(c2nc(OCc3ccc(C#N)cc3)ncc2F)CCN1Cc1nc2ccc(C(=O)O)cc2n1CCC(F)(F)F [Example 70, ammonium 2-{[(2S)-4-{2-[(4-cyanobenzyl)oxy]-5-fluoropyrimidin-4-yl}-2-methylpiperazin-1-yl]methyl}-1-(3,3,3-trifluoropropyl)-1H-benzimidazole-6-carboxylate]
0.3 | 65 | – | – | – | COCCn1c(C2CC23CCN(c2nc(OCc4ccc(Cl)cc4F)ncc2F)CC3)nc2cnc(C(=O)O)cc21 (single isomer, unassigned) [Example 31, 2-(6-{2-[(4-chloro-2-fluorobenzyl)oxy]-5-fluoropyrimidin-4-yl}-6-azaspiro[2.5]oct-1-yl)-1-(2-methoxyethyl)-1H-imidazo[4,5-c]pyridine-6-carboxylic acid, trifluoroacetate salt, single enantiomer; from P7]
0.17 | 110 | – | – | – | Cn1cnc(Cn2c(CN3CCC(c4ccnc(OCc5ccc(Cl)cc5F)n4)CC3)nc3ccc(C(=O)O)cc32)c1 [Example 66, 2-[(4-{2-[(4-chloro-2-fluorobenzyl)oxy]pyrimidin-4-yl}piperidin-1-yl)methyl]-1-[(1-methyl-1H-imidazol-4-yl)methyl]-1H-benzimidazole-6-carboxylic acid]
0.043 | – | 74 | – | – | N#Cc1ccc(COc2nc(N3CCC4(CC3)CC4c3nc4ccc(C(=O)O)cc4n3CC3CCO3)c(F)cc2F)c(F)c1 (single isomer, unassigned; ent-2) [Example 58]
